Data as given in publication PMC8092340 (Oncotarget, 2021).
Like-named read-outs stand apart in the source and are kept apart here.

Key:
alt-NHEJ [1] = experiment: EJ-DR 384-well imaging assay, alt-NHEJ (RFP) readout; settings: for Selectivity Index (HR IC50/alt-NHEJ IC50) / selectivity index SI (CT IC50/alt-NHEJ IC50): ratio; for Selectivity Index (HR IC50/alt-NHEJ IC50): Supplementary Table 2
EJ-DR U2OS cells = experiment: Cytotoxicity in the absence of DSB ligands (CT), Hoechst cell count; assay type: cell-based, human; settings: Supplementary Table 2, mean ± SEM of four technical replicates
HR = experiment: EJ-DR 384-well imaging assay, HR (GFP) readout; settings: read-out: HR IC50
[2] = In vivo pharmacokinetic study, brain tissue
Procedure: (§1) These measurements were used to calculate various pharmacokinetic parameters critical to bioavailability including time to reach maximum concentration (tmax), maximum concentration achieved (Cmax), and half-life (t1/2) (Figure 5C, 5D, Supplementary Table 1).
(§2) Compound concentrations were measured at these time-points using Liquid Chromatography with tandem mass spectrometry (LC-MS-MS). Pharmacokinetic studies were performed by orally dosing test compounds at 30 mg/kg dissolved in 50% PEG400 and 50% water in female athymic nude mice. Plasma and brain tissue concentration were measured using mass spectrometry (MS).

Human hERG (Kv11.1) = biological target: T1, Human hERG (Kv11.1) (Homo sapiens, UniProt Q12809); experiment: Automated hERG inhibition patch clamp assay; assay type: cell-based; settings: for IC50: patch clamp, CHO-K1 cells; for SIhERG (hERG IC50/alt-NHEJ IC50), called fold reduction in hERG potency: ratio
T1 construct: host or cells: CHO-K1
Procedure: Automated whole cell voltage clamp hERG inhibition assays were performed in Human hERG (Kv11.1) expressed in CHO-K1 cells optimized for automated patch clamp studies by Sophion Bioscience A/S [47].

[3] = In vivo pharmacokinetic study, plasma
Procedure: as §1, §2

L type Cav 1.2 = biological target: T2, L type Cav 1.2 (Homo sapiens, UniProt Q13936); experiment: Calcium channel blocking study, L-type; assay type: cell-based; settings: CHO cells stably expressing the channel
T2 construct: host or cells: CHO

[4] = Cytotoxicity in the absence of DSB ligands (CT), Hoechst cell count; assay type: cell-based, human; settings: human, EJ-DR U2OS cells, no DSB ligands
T type Cav 3.3 = biological target: T3, T type Cav 3.3 (Homo sapiens, UniProt Q9P0X4); experiment: Calcium channel blocking study, T-type Cav3.3; assay type: cell-based; settings: HEK293 cells stably expressing the channel
T3 construct: host or cells: HEK293

T type Cav 3.1 = biological target: T4, T type Cav 3.1 (Homo sapiens, UniProt O43497); experiment: Calcium channel blocking study, T-type Cav3.1; assay type: cell-based; settings: HEK293 cells stably expressing the channel
T4 construct: host or cells: HEK293

T type Cav 3.2 = biological target: T5, T type Cav 3.2 (Homo sapiens, UniProt O95180); experiment: Calcium channel blocking study, T-type Cav3.2; assay type: cell-based; settings: HEK293 cells stably expressing the channel
T5 construct: host or cells: HEK293

alt-NHEJ [5] = settings: ratio; Supplementary Table 2
CYP3A4 = biological target: T6, CYP3A4 (Homo sapiens, UniProt P08684); experiment: Cytochrome P450 inhibition assay in human liver microsomes, CYP3A4; assay type: in vitro ADME; settings: for IC50 / selectivity ratio: human liver microsomes; for selectivity ratio: human, read-out: SICYP 3A4 (selectivity index of CYP, CYP3A4 IC50 to alt-NHEJ IC50), called fold decrease in CYP3A4 inhibition
T6 construct: tissue Eurofins Scientific; host or cells: human liver microsomes
Procedure: (§3) CYP inhibition assays were performed by Eurofins Scientific. Test compounds were incubated with human liver microsomes, followed by compound detection using high performance liquid chromatography with tandem mass spectrometry (HPLC-MS/MS).

CYP2D6 = biological target: T7, CYP2D6 (Homo sapiens, UniProt P10635); experiment: Cytochrome P450 inhibition assay in human liver microsomes, CYP2D6; assay type: in vitro ADME; settings: human liver microsomes; for selectivity ratio: human, read-out: SICYP 2D6 (selectivity index of CYP, CYP2D6 IC50 to alt-NHEJ IC50), called fold decrease in CYP2D6 inhibition
T7 construct: tissue Eurofins Scientific; host or cells: human liver microsomes
Procedure: as §3

[6] = oral 30 mg/kg, female athymic nude mice
[7] = oral 30 mg/kg, female athymic nude mice, YU252222 given as methyl ester prodrug
[8] = Homo sapiens, U2OS, read-out: alt-NHEJ IC50
[9] = Homo sapiens, read-out: nc-EJ IC50
[10] = Table 1, read-out: Cytotoxicity IC50
[11] = figures, read-out: CT IC50 (cytotoxicity)
[12] = Homo sapiens, read-out: alt-NHEJ IC50
[13] = female, athymic nude, mouse, in vivo, po, 30 mg/kg

T6 sequence (P08684 whole entry): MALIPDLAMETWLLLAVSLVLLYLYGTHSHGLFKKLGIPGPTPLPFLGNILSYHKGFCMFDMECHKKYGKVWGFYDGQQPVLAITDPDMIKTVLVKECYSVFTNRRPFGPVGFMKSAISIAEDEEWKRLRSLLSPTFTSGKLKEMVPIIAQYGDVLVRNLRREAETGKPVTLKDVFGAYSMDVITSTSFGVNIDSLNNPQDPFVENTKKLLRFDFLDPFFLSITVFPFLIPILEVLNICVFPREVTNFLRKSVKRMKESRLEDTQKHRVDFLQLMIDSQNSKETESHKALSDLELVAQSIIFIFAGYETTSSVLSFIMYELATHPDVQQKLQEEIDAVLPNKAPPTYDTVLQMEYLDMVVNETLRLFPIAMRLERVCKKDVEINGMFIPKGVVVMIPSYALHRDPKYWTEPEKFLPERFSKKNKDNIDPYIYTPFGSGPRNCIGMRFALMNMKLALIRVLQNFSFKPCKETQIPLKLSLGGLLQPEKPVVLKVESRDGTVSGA
T1 sequence (Q12809 whole entry): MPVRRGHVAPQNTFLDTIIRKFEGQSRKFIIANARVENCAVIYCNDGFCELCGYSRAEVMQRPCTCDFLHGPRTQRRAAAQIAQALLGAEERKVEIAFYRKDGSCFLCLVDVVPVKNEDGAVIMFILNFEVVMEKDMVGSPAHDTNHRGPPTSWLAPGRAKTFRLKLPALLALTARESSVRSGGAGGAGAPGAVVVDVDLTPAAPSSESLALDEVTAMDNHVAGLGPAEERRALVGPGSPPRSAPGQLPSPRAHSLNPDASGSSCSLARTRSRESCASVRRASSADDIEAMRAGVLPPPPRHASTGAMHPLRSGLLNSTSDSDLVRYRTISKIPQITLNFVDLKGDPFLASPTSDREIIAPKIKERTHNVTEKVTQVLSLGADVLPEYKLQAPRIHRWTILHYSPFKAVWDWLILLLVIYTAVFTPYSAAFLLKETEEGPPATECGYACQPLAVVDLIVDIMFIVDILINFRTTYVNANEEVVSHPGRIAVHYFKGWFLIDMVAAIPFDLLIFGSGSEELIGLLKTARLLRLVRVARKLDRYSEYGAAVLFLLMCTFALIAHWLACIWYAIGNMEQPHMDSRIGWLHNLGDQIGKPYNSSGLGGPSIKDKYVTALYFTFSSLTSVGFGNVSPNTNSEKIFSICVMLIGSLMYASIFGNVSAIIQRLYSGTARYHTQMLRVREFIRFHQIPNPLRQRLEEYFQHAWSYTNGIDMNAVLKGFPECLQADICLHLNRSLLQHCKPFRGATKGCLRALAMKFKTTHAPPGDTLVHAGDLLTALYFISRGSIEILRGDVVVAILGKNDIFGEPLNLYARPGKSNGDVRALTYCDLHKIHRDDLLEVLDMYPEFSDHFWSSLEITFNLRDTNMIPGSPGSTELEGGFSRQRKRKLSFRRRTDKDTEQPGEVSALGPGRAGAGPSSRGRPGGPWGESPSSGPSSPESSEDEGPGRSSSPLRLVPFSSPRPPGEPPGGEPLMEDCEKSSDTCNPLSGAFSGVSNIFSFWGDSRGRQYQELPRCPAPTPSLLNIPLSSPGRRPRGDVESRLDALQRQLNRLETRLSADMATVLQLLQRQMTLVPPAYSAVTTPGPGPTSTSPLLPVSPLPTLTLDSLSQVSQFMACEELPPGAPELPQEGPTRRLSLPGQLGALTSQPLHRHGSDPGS
T7 sequence (P10635 whole entry): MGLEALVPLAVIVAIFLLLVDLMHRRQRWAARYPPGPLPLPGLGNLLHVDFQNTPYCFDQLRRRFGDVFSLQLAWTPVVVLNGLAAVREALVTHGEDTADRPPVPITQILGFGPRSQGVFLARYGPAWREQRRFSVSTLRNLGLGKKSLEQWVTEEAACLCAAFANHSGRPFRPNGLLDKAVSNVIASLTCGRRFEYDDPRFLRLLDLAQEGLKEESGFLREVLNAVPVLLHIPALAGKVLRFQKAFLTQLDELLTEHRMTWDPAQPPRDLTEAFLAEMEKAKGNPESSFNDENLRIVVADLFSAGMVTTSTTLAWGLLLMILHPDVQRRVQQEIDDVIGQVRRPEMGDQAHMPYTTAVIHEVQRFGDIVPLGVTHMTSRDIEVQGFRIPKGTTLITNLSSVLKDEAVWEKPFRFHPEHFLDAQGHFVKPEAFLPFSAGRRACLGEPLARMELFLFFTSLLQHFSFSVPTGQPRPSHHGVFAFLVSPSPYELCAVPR
T4 sequence (O43497 whole entry): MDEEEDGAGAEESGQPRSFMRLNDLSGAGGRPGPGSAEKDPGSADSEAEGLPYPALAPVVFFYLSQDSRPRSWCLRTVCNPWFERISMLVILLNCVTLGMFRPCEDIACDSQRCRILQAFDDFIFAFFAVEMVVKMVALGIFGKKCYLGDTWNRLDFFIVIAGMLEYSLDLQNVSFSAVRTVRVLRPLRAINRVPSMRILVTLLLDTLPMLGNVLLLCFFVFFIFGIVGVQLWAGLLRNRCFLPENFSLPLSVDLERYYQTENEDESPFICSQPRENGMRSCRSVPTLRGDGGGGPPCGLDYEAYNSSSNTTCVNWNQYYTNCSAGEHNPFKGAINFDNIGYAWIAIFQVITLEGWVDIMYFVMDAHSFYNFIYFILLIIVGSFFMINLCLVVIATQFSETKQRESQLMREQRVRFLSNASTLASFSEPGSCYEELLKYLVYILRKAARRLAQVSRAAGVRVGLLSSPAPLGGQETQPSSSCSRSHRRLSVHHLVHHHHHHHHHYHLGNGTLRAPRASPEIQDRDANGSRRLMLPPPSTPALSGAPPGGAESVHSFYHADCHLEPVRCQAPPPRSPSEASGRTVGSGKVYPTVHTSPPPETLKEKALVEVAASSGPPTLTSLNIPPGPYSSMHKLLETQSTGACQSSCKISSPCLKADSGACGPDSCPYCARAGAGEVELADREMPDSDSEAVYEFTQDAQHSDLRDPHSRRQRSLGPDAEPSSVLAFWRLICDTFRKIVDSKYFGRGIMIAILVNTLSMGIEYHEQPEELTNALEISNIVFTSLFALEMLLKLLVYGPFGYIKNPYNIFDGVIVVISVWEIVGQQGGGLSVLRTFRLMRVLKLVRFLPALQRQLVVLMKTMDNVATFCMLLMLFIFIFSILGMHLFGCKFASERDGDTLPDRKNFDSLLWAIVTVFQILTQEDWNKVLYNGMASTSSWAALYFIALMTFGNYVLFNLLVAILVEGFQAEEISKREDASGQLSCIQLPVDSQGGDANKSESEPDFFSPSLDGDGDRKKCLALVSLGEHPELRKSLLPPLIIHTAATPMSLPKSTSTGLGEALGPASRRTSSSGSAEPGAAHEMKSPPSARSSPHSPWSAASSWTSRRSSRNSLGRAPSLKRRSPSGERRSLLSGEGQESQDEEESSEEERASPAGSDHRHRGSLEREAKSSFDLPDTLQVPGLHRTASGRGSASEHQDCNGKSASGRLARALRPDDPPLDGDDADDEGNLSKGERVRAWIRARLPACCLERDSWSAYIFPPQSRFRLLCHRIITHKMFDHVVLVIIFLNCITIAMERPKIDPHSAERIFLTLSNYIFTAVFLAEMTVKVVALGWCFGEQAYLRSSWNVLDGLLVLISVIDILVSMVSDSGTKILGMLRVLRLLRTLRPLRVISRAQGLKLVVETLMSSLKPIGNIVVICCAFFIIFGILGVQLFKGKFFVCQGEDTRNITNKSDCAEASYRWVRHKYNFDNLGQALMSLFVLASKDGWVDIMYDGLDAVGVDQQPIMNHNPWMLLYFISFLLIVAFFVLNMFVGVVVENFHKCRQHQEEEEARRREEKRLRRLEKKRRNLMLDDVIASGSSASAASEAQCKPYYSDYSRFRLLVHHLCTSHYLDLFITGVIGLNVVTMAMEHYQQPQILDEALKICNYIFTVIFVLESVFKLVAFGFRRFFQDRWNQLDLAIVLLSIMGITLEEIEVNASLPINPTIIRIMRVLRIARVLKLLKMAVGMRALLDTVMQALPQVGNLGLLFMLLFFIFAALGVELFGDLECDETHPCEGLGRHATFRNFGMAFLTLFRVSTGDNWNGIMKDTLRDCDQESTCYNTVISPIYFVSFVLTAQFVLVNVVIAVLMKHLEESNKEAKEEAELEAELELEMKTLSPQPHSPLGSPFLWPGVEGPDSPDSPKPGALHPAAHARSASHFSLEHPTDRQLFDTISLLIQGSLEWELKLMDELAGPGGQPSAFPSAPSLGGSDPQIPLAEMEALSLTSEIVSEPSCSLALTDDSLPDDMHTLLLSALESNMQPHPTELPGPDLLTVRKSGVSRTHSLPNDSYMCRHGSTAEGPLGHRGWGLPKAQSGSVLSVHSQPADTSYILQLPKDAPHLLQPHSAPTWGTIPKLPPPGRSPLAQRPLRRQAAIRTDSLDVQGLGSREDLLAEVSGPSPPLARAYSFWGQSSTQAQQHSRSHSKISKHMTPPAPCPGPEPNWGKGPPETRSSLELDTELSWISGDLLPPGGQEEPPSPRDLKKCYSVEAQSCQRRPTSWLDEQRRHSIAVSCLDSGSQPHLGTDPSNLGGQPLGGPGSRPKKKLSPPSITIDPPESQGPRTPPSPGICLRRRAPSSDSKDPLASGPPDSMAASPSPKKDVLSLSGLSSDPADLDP

In the case of `CC(=O)c1c(C)c2cnc(Nc3ccc(N4CCNCC4)cn3)nc2n(C2CCCC2)c1=O` [Pablociclib], the “Selectivity Index (HR IC50/alt-NHEJ IC50)” value (alt-NHEJ [1]) is reported as 1.50, the IC50 (alt-NHEJ [1]; read-out: alt-NHEJ IC50, EJ-DR assay, Supplementary Table 2, mean ± SEM of four technical replicates) is reported as 0.04 ± 0.01 µM and the IC50 (EJ-DR U2OS cells) is reported as 1.37 ± 0.36 µM. For the same compound, the IC50 (HR; EJ-DR assay, Supplementary Table 2, mean ± SEM of four technical replicates) was 0.06 ± 0.01 µM.

With `O.O=C(O)C(F)(F)F.O=c1[nH]c2ccccc2n1C1CCN(Cc2ccc(-c3nc4cc5[nH]cnc5cc4nc3-c3ccccc3)cc2)CC1` [Akt-1/2 inhibitor] the “selectivity index SI (CT IC50/alt-NHEJ IC50)” value (alt-NHEJ [1]) was 77.67, the IC50 (alt-NHEJ [1]; read-out: alt-NHEJ IC50, EJ-DR U2OS cells, text and figures) was 0.15 µM and the IC50 (HR; EJ-DR U2OS cells, text and figures) was > 10 µM.

For `CC(C)C1c2ccc(F)cc2CCC1(O)CCN1CC(Oc2ccc(Cl)cn2)CC1CO` (stereo not drawn) [YU252377], the “brain exposure” value [2, 6] was “did not achieve detectable brain exposure”, the IC50 (Human hERG (Kv11.1)) was 6.43 µM and the “SIhERG (hERG IC50/alt-NHEJ IC50), called fold reduction in hERG potency” value (Human hERG (Kv11.1)) was 4.20. For the same compound, the half-life ([3]; female, athymic nude, mouse, plasma, po, 30 mg/kg) was 1.81 h, the Cmax ([3]; female, athymic nude, mouse, plasma, po, 30 mg/kg, Maximum concentration (Cmax), oral 30 mg/kg, female athymic nude mice, YU252222 given as methyl ester prodrug) was 68.9 ng/mL and the “% AUC Extrapolation” value [3, 6] was 1.1%. For the same compound, the “AUC(0-x)/Dose” value [3, 6] was 5.83 ng·h/mL/mg/kg, the Cmax/Dose [3, 6] was 2.30 ng/mL/mg/kg and the “Time at which Cmax was observed (tmax)” value [3, 6] was 1.0 h. For the same compound, the “Area under concentration vs time curve (AUC) (0-x)” value [3, 7] was 175 ng·h/mL, the “Maximum concentration (Cmax)” value ([3]; oral 30 mg/kg, female athymic nude mice, YU252222 given as methyl ester prodrug, 30 mg/kg) was < 100 ng/mL and the IC50 (alt-NHEJ [1]; [8]) was 1.53 µM. For the same compound, the IC50 (alt-NHEJ [1]; [9]) was 1.5 µM, the IC50 (L type Cav 1.2) was 6.3 µM and the IC50 at 96 h [4, 10] was 14.8 µM. It also gave an IC50 (T type Cav 3.3) of 8.2 µM, an IC50 (T type Cav 3.1) of 5.3 µM and an IC50 (T type Cav 3.2) of 5.6 µM. For the same compound, the IC50 (HR; Homo sapiens) was > 60 µM.

In the case of `CC(C)C1c2ccccc2CCN1C(=O)CC1CCN(C(=O)OC(C)(C)C)CC1` (stereo not drawn) [YU241542], the IC50 (alt-NHEJ [1]; [8]) is reported as 41.3 µM, the “selectivity index SI (CT IC50/alt-NHEJ IC50)” value (alt-NHEJ [1]) is reported as > 1.45 and the IC50 at 96 h [4, 11] is reported as > 60 µM.

For `NC(=O)Nc1cc(-c2cccc(F)c2)sc1C(=O)N[C@H]1CCCNC1` [AZD 7762], the IC50 (alt-NHEJ [1]; [12]) was > 60 µM, the IC50 (EJ-DR U2OS cells; Homo sapiens, U2OS) was 0.13 ± 0.01 µM and the IC50 (HR; Homo sapiens) was > 60 µM.

In the case of `Cn1ncc(Cl)c1-c1cc(C(=O)N[C@H](CN)Cc2cccc(F)c2)sc1Cl` [Afuresertib], the “Selectivity Index (HR IC50/alt-NHEJ IC50)” value (alt-NHEJ [5]) is reported as 7.43, the IC50 (alt-NHEJ [1]; [12]) is reported as 0.61 ± 0.46 µM and the IC50 (EJ-DR U2OS cells; Homo sapiens, U2OS) is reported as 14.2 ± 2.32 µM. It also gave an IC50 (HR; Homo sapiens) of 4.53 ± 5.75 µM.

For `CC(C)[C@H]1c2ccc(F)cc2CC[C@]1(O)CCN(C)CC(O)c1ccccc1` (stereo partly drawn) [YU241553], the IC50 (alt-NHEJ [1]; [8]) was 8.87 µM, the “selectivity index SI (CT IC50/alt-NHEJ IC50)” value (alt-NHEJ [1]) was 2.71 and the IC50 at 96 h [4, 11] was 24 µM.

`O=C(NC(CCN1CC(Oc2nccc3ccccc23)CC1CO)c1ccc(F)cc1)C1CCC(F)(F)CC1` (stereo not drawn) [YU253106] gave an IC50 (CYP3A4) of 14.5 µM, a selectivity ratio (CYP3A4; ratio) of 10.3 and an IC50 (alt-NHEJ [1]; [8]) of 1.4 µM. The IC50 (CYP2D6) was 2.3 µM and the selectivity ratio (CYP2D6) was 1.64.

For `COC[C@@H]1C[C@@H](Oc2nccc3ccccc23)CN1CC[C@@]1(O)CCc2cc(F)ccc2[C@@H]1C(C)C` [YU252373], the IC50 (Human hERG (Kv11.1)) was 9.8 µM, the “SIhERG (hERG IC50/alt-NHEJ IC50), called fold reduction in hERG potency” value (Human hERG (Kv11.1)) was 5.76 and the IC50 (alt-NHEJ [1]; [8]) was 1.7 µM.

With `NC1(C(=O)N[C@@H](CCO)c2ccc(Cl)cc2)CCN(c2ncnc3[nH]ccc23)CC1` [AZD 5363] the IC50 (alt-NHEJ [1]; [12]) was 16.9 ± 26.5 µM, the “Selectivity Index (HR IC50/alt-NHEJ IC50)” value (alt-NHEJ [1]) was 1.87 and the IC50 (EJ-DR U2OS cells; Homo sapiens, U2OS) was 48.5 ± 73 µM. It also gave an IC50 (HR; Homo sapiens) of 31.6 ± 59.2 µM.

With `CC(C)C(C(=O)NCCCN1CC=C(c2ccc(Cl)cc2)CC1)c1ccc(F)cc1` (stereo not drawn) [YU252386] the half-life [2, 13] was ~2.5 h, the “brain concentration relative to the alt-NHEJ IC50” value [2, 6] was ~ 3 fold and the “brain exposure compared to mibefradil” value [2, 6] was ~ 8 fold. For the same compound, the “percent coverage of the in vitro alt-NHEJ IC50 at the Cmax in the brain” value [2, 6] was 300%, the IC50 (CYP3A4) was 17.9 µM and the selectivity ratio (CYP3A4; ratio) was 16.9. The “SICYP 3A4 (selectivity index of CYP, CYP3A4 IC50 to alt-NHEJ IC50), called fold decrease in CYP3A4 inhibition” value (CYP3A4; ratio) was ~ 17, the half-life [3, 13] was 4.01 h and the “% AUC Extrapolation” value [3, 6] was 7.5%. For the same compound, the “AUC(0-x)/Dose” value [3, 6] was 45.0 ng·h/mL/mg/kg, the Cmax/Dose [3, 6] was 11.3 ng/mL/mg/kg and the “Time at which Cmax was observed (tmax)” value [3, 6] was 1.0 h. The “plasma concentration compared with mibefradil” value [3, 6] was ~ 0.3 fold, the “Area under concentration vs time curve (AUC) (0-x)” value [3, 7] was 1350 ng·h/mL and the IC50 (alt-NHEJ [1]; [8]) was 1.06 µM. It also gave an IC50 (alt-NHEJ [1]; [9]) of 1.1 µM, an IC50 (L type Cav 1.2) of 5.6 µM and an IC50 at 96 h [4, 10] of 17.9 µM. It also gave an IC50 (T type Cav 3.3) of 1.1 µM, an IC50 (T type Cav 3.1) of 0.9 µM and an IC50 (CYP2D6) of 0.87 µM. For the same compound, the selectivity ratio (CYP2D6) was 0.82, the IC50 (T type Cav 3.2) was 0.9 µM and the IC50 (HR; Homo sapiens) was > 60 µM.
